Laboratory results reported in ChEMBL document CHEMBL4732075, “PROTACs suppression of GSK-3β, a crucial kinase in neurodegenerative diseases” (Eur J Med Chem, 2021).
One block for each molecule: values may come before it. Calls of active or inactive are those of the source. The calls are words filed in the database; no cut-off is given here.

Key:
[1] = target: T1, Protein cereblon/Glycogen synthase kinase-3 beta (Rattus norvegicus) (UniProt P18266+Q56AP7); assay: Protac activity at CRBN/GSK3beta in rat PC12 cells assessed as GSK3beta degradation by measuring GSK3beta protein level at 10 uM after 10 hrs by Western blotting analysis; format: cell-based; settings: PC-12
T1 sequence (P18266 whole entry, looked up): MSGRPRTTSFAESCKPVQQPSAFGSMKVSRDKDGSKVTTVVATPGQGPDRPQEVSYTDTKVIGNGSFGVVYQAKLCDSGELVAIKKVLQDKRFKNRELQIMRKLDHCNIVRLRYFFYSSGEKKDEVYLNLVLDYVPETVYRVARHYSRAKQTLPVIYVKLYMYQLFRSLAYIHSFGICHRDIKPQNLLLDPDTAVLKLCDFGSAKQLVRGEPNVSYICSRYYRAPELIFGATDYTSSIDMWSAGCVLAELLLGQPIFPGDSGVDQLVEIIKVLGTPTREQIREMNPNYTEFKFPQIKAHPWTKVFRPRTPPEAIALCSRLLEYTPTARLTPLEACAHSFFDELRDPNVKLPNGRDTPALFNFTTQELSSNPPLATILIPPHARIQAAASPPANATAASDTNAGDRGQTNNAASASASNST
T1 sequence (Q56AP7 whole entry, looked up): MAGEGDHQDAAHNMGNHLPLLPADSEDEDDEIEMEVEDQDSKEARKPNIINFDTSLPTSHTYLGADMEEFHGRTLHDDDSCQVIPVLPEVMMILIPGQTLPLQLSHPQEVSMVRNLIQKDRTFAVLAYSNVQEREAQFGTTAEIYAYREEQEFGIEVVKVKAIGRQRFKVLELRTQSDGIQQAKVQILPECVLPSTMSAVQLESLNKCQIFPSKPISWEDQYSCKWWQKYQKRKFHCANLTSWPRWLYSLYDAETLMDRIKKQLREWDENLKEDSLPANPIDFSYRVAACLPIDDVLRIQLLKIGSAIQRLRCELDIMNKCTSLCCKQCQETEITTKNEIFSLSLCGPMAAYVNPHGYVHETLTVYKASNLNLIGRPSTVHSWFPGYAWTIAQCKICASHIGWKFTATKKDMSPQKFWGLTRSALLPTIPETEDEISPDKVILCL

[2] = target: T2, Glycogen synthase kinase-3 beta (Homo sapiens, UniProt P49841); assay: Inhibition of N-terminal His6-tagged recombinant human GSK3beta H350L mutant expressed in baculovirus infected Sf21 cells using GSM as substrate incubated for 30 mins in presence of ATP by Kinase-Glo luminescent assay
Target sequence in this assay (P49841 whole entry): as the sequence (P18266 whole entry, looked up) above, with M240V, P390T, A392T, T400A, A402T counted along it

[3] = target: T1, Protein cereblon/Glycogen synthase kinase-3 beta (Rattus norvegicus); assay: Protac activity at CRBN/GSK3beta in rat PC12 cells assessed as GSK3beta degradation by measuring GSK3beta protein level at 20 uM after 10 hrs by Western blotting analysis (reference value: 100 %); format: cell-based; settings: PC-12
[4] = target: T1, Protein cereblon/Glycogen synthase kinase-3 beta (Rattus norvegicus); assay: Protac activity at CRBN/GSK3beta in rat PC12 cells assessed as GSK3beta degradation by measuring reduction in GSK3beta protein level after 10 hrs by Western blotting analysis; format: cell-based; settings: PC-12, dose 2.8-25 µM
[5] = target: Cyclin-dependent kinase 9 (Homo sapiens) (UniProt P50750); assay: Inhibition of CDK9 (unknown origin) at 300 nM relative to control
Cyclin-dependent kinase 9 (Homo sapiens), sequence (P50750 whole entry): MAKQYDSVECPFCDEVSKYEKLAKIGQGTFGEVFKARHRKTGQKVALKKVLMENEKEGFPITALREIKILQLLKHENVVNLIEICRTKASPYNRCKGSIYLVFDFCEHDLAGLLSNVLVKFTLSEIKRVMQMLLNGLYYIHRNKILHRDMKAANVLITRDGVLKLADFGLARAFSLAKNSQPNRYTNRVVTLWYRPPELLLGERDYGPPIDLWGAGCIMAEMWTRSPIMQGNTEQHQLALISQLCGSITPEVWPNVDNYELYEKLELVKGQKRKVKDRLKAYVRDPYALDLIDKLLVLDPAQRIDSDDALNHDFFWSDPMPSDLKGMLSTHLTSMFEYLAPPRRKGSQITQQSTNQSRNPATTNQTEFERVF

[6] = target: Mitogen-activated protein kinase 9 (Homo sapiens) (UniProt P45984); assay: Inhibition of JNK2 (unknown origin) at 300 nM relative to control
Mitogen-activated protein kinase 9 (Homo sapiens), sequence (P45984 whole entry, looked up): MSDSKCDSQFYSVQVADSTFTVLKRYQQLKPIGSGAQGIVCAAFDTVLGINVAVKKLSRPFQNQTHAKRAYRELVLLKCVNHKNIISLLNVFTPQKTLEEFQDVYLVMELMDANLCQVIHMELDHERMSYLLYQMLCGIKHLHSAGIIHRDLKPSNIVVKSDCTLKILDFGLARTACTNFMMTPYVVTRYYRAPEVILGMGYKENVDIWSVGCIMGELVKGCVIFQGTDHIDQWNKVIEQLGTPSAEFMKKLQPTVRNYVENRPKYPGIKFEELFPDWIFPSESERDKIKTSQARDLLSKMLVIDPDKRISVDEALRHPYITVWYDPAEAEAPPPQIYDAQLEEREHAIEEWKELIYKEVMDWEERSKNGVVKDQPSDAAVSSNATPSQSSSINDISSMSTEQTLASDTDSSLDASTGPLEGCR

[7] = target: Mitogen-activated protein kinase 14 (Homo sapiens) (UniProt Q16539); assay: Inhibition of p38alpha (unknown origin) at 300 nM relative to control
[8] = target: Mitogen-activated protein kinase 10 (Homo sapiens) (UniProt P53779); assay: Inhibition of JNK3 (unknown origin) at 300 nM relative to control
Mitogen-activated protein kinase 10 (Homo sapiens), sequence (P53779 whole entry): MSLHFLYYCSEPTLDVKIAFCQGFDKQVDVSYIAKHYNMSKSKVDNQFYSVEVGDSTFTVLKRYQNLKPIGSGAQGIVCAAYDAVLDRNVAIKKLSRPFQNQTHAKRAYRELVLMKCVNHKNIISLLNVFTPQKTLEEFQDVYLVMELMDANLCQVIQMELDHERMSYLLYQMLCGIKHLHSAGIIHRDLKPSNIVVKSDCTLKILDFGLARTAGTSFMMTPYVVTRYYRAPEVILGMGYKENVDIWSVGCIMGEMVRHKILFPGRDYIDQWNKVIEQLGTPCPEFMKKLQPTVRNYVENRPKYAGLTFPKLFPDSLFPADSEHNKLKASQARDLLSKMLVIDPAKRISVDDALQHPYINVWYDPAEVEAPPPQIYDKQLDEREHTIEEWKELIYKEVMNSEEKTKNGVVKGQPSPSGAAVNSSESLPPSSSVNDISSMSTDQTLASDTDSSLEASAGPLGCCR

[9] = target: T1, Protein cereblon/Glycogen synthase kinase-3 beta (Rattus norvegicus); assay: Protac activity at CRBN/GSK3beta in rat PC12 cells assessed as GSK3beta degradation by measuring GSK3beta protein level at 2.8 uM after 10 hrs by Western blotting analysis (reference value: 100 %); format: cell-based; settings: PC-12
[10] = target: T1, Protein cereblon/Glycogen synthase kinase-3 beta (Rattus norvegicus); assay: Protac activity at CRBN/GSK3beta in rat PC12 cells assessed as GSK3beta degradation by measuring GSK3beta protein level at […] preincubated for 2 hrs with GSK3beta inhibitor, G1 followed by compound addition and measured after 8 hrs by Western blotting analysis (reference value: 100 %); format: cell-based; design: scale not given: the % may be the effect or the level left; settings: PC-12, dose 8.3 µM
[11] = target: Mitogen-activated protein kinase 11 (Homo sapiens) (UniProt Q15759); assay: Inhibition of p38beta (unknown origin) at 300 nM relative to control
Mitogen-activated protein kinase 11 (Homo sapiens), sequence (Q15759 whole entry): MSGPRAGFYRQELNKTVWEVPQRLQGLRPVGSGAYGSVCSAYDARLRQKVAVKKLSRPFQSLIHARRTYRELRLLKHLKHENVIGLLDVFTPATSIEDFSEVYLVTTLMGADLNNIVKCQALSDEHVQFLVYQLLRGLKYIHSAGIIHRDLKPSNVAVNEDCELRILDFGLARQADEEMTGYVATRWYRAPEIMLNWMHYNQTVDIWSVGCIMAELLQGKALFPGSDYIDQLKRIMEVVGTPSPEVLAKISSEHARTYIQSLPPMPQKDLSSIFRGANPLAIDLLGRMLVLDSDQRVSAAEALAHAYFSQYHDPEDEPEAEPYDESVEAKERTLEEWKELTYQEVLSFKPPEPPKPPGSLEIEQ

[12] = target: T3, Mitogen-activated protein kinase 13 (Homo sapiens) (UniProt O15264); assay: Inhibition of p38delta (unknown origin) at 300 nM relative to control
T3 sequence (whole entry): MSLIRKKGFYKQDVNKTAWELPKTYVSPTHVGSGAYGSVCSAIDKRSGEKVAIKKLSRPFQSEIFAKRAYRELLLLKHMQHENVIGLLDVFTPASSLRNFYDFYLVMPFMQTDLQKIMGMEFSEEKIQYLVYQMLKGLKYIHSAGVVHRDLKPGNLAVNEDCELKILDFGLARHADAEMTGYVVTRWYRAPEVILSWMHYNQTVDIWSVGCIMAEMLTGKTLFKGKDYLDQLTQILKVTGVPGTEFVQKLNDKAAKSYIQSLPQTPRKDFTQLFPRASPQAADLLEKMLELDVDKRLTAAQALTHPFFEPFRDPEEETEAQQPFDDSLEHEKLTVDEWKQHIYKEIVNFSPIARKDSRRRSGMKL

[13] = target: Cyclin-dependent kinase 1 (Homo sapiens) (UniProt P06493); assay: Inhibition of CDK1 (unknown origin) at 300 nM relative to control
Cyclin-dependent kinase 1 (Homo sapiens), sequence (P06493 whole entry, looked up): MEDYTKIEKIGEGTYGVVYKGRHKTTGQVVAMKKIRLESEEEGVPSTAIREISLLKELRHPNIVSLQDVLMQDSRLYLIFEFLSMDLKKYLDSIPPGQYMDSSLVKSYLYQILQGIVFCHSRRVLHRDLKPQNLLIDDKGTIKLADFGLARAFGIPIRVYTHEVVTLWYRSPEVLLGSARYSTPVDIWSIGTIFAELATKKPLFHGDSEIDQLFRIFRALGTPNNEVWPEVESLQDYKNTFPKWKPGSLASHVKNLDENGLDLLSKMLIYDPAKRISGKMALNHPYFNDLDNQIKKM

BV-2 = assay: Anti-neuroinflammatory activity in mouse BV2 cells assessed as reduction in LPS-induced TNFalpha production at 5 uM pretreated for 5 hrs followed by LPS challenge and measured after 24 hrs by immunofluorescence confocal microscopic analysis; format: functional, cell-based; settings: time 29.0 hrs
[14] = target: T1, Protein cereblon/Glycogen synthase kinase-3 beta (Rattus norvegicus); assay: Protac activity at CRBN/GSK3beta in rat PC12 cells assessed as GSK3beta degradation by measuring GSK3beta protein level at […] preincubated for 2 hrs with proteasome inhibitor, MG132 followed by compound addition and measured after 8 hrs by Western blotting analysis (reference value: 100 %); format: cell-based; design: scale not given: the % may be the effect or the level left; settings: PC-12, dose 8.3 µM
[15] = target: T1, Protein cereblon/Glycogen synthase kinase-3 beta (Rattus norvegicus); assay: Protac activity at CRBN/GSK3beta in rat PC12 cells assessed as GSK3beta degradation by measuring GSK3beta protein level at […] after 10 hrs by Western blotting analysis (reference value: 100 %); format: cell-based; settings: PC-12, dose 8.3 µM
[16] = target: Mitogen-activated protein kinase 1 (Homo sapiens) (UniProt P28482); assay: Inhibition of ERK2 (unknown origin) at 300 nM relative to control
[17] = target: Cyclin-dependent kinase 7 (Homo sapiens) (UniProt P50613); assay: Inhibition of CDK7 (unknown origin) at 300 nM relative to control
Cyclin-dependent kinase 7 (Homo sapiens), sequence (P50613 whole entry): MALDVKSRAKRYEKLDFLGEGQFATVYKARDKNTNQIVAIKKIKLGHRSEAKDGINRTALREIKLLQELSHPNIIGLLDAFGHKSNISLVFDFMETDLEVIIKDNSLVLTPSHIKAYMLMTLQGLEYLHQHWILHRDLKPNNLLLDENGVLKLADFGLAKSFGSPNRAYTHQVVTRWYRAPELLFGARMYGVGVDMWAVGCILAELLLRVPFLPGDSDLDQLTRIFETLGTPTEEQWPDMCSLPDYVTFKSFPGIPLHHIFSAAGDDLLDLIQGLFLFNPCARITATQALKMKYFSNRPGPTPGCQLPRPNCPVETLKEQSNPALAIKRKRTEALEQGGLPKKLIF

[18] = target: Glycogen synthase kinase-3 alpha (Homo sapiens) (UniProt P49840); assay: Inhibition of GSK3alpha (unknown origin) at 300 nM relative to control
Glycogen synthase kinase-3 alpha (Homo sapiens), sequence (P49840 2-483 limits assumed): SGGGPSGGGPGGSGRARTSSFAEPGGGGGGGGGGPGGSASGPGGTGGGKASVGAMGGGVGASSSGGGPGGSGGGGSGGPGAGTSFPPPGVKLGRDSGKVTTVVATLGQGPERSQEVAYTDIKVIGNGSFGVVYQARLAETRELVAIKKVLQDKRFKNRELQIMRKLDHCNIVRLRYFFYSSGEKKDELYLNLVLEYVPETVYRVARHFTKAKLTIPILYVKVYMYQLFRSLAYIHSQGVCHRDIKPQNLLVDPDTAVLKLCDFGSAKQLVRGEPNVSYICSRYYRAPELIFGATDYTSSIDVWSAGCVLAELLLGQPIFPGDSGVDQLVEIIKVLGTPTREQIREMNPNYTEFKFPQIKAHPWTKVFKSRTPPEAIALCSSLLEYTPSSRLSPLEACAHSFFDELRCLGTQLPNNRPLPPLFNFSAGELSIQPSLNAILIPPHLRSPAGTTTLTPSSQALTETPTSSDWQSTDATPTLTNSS

[19] = target: T1, Protein cereblon/Glycogen synthase kinase-3 beta (Rattus norvegicus); assay: Protac activity at CRBN/GSK3beta in rat PC12 cells assessed as GSK3beta degradation by measuring GSK3beta protein level at 25 uM after 10 hrs by Western blotting analysis (reference value: 100 %); format: cell-based; settings: PC-12
[20] = target: T2, Glycogen synthase kinase-3 beta; assay: Inhibition of GSK3beta (unknown origin) at 300 nM relative to control
Target sequence in this assay (P49841 whole entry, looked up): as the sequence (P18266 whole entry, looked up) above, with M240V, P390T, A392T, T400A, A402T counted along it

[21] = target: Dual specificity tyrosine-phosphorylation-regulated kinase 1A (Homo sapiens) (UniProt Q13627); assay: Inhibition of DYRK1alpha (unknown origin) at 300 nM relative to control
[22] = target: T1, Protein cereblon/Glycogen synthase kinase-3 beta (Rattus norvegicus); assay: Protac activity at CRBN/GSK3beta in rat PC12 cells assessed as GSK3beta degradation by measuring GSK3beta protein level at […] preincubated for 2 hrs with […] ligand, pomalidomide followed by compound addition and measured after 8 hrs by Western blotting analysis (reference value: 100 %); format: cell-based; settings: PC-12, dose 8.3 µM
[23] = target: Cyclin-dependent kinase 4 (Homo sapiens) (UniProt P11802); assay: Inhibition of CDK4 (unknown origin) at 300 nM relative to control
Cyclin-dependent kinase 4 (Homo sapiens), sequence (P11802 whole entry): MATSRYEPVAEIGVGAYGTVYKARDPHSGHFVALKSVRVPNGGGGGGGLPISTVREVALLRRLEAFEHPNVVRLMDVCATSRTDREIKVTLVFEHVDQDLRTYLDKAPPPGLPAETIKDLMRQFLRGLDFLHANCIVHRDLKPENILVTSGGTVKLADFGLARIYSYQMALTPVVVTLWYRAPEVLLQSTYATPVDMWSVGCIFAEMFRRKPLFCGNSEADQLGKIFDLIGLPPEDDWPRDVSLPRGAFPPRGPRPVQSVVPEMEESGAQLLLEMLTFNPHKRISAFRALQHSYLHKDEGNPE

[24] = target: Dual specificity tyrosine-phosphorylation-regulated kinase 1B (Homo sapiens) (UniProt Q9Y463); assay: Inhibition of DYRK1beta (unknown origin) at 300 nM relative to control
Dual specificity tyrosine-phosphorylation-regulated kinase 1B (Homo sapiens), sequence (Q9Y463 whole entry, looked up): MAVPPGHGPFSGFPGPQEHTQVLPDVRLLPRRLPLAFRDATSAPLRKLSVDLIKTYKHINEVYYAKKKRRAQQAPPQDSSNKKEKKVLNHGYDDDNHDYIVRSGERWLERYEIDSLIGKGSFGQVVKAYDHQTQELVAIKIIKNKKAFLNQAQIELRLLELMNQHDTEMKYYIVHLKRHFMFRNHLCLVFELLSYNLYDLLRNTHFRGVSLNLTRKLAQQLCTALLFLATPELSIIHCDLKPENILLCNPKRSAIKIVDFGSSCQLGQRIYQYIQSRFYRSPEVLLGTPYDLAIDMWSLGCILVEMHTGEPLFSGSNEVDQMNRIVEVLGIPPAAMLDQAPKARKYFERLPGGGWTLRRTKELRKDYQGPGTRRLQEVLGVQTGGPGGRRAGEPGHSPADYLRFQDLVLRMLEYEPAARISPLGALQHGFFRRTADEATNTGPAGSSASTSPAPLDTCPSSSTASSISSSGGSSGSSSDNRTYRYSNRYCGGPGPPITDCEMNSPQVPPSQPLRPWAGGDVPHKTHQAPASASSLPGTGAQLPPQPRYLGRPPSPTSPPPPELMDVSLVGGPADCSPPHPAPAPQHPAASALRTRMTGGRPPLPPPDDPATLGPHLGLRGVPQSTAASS

HT-22 = assay: Neuroprotective activity against glutamate-induced cell death in mouse HT22 cells at 5 uM preincubated for 10 hrs followed by glutamate challenge and measured after 24 hrs by fluorescence inverted microscopic analysis; format: functional, cell-based
[25] = target: Mitogen-activated protein kinase 3 (Homo sapiens) (UniProt P27361); assay: Inhibition of ERK1 (unknown origin) at 300 nM relative to control

SMILES: CNC(=O)c1sc(-c2ccnc(NC(=O)C3CC3)c2)nc1OCCOCCOCCOCCOCCOc1cccc2c1C(=O)N(C1CCC(=O)NC1=O)C2=O (stereo not drawn)
- GSK3beta protein level remaining [1]: 95.5%
- IC50 [2]: 69.3 nM

SMILES: CNC(=O)c1sc(-c2ccnc(NC(=O)C3CC3)c2)nc1OCCCCCCCCCCCCOc1cccc2c1C(=O)N(C1CCC(=O)NC1=O)C2=O (stereo not drawn)
- GSK3beta protein level remaining [1]: 58.1%
- IC50 [2]: 98 nM

SMILES: CNC(=O)c1sc(-c2ccnc(NC(=O)C3CC3)c2)nc1OCCCCCCOc1cccc2c1C(=O)N(C1CCC(=O)NC1=O)C2=O (stereo not drawn)
- IC50 [2]: 71.6 nM

SMILES: NC(=O)c1sc(-c2ccnc(NC(=O)C3CC3)c2)nc1O
- Activity [3]: 111%
- GSK3beta protein level remaining [1]: 104%

SMILES: CNC(=O)c1sc(-c2ccnc(NC(=O)C3CC3)c2)nc1OCCCCCCCCn1cc(COc2cccc3c2C(=O)N(C2CCC(=O)NC2=O)C3=O)nn1 (stereo not drawn)
- Activity [4]: Dose-dependent effect
- inhibition [5]: 3.27%
- inhibition [6]: 1.78%
- inhibition [7]: 5.63%
- inhibition [8]: 13.8%
- Activity [9]: 55.8%
- Activity [10]: 102%
- inhibition [11]: 6.94%
- inhibition [12]: 18.4%
- inhibition [13]: 4.01%
- Activity (BV-2): Active
- Activity [14]: 96.6%
- Activity [15]: 36.5%
- inhibition [16]: 5.84%
- inhibition [17]: 3.65%
- inhibition [18]: 88.9%
- GSK3beta protein level remaining [1]: 25.2%
- Activity [19]: 16.7%
- inhibition [20]: 81.5%
- inhibition [21]: 40.4%
- Activity [22]: 109%
- inhibition [23]: 4.09%
- inhibition [24]: 19.6%
- IC50 [2]: 83.1 nM
- Activity (HT-22): Active
- inhibition [25]: 6.79%

SMILES: CNC(=O)c1sc(-c2ccnc(NC(=O)C3CC3)c2)nc1OCCOCC#Cc1cccc2c1CN(C1CCC(=O)NC1=O)C2=O (stereo not drawn)
- GSK3beta protein level remaining [1]: 89.7%
- IC50 [2]: 49.2 nM

SMILES: CNC(=O)c1sc(-c2ccnc(NC(=O)C3CC3)c2)nc1OCCCC#Cc1cccc2c1CN(C1CCC(=O)NC1=O)C2=O (stereo not drawn)
- GSK3beta protein level remaining [1]: 85.1%
- IC50 [2]: 295 nM

SMILES: COc1nc(-c2ccnc(NC(=O)C3CC3)c2)sc1C(=O)NCCCCNC(=O)COc1cccc2c1C(=O)N(C1CCC(=O)NC1=O)C2=O (stereo not drawn)
- IC50 [2]: 639 nM

SMILES: CNC(=O)c1sc(-c2ccnc(NC(=O)C3CC3)c2)nc1OCCC#Cc1cccc2c1CN(C1CCC(=O)NC1=O)C2=O (stereo not drawn)
- IC50 [2]: > 1000 nM

SMILES: CNC(=O)c1sc(-c2ccnc(NC(=O)C3CC3)c2)nc1OCCCCCCCCCCOc1cccc2c1C(=O)N(C1CCC(=O)NC1=O)C2=O (stereo not drawn)
- GSK3beta protein level remaining [1]: 85.6%
- IC50 [2]: 70.4 nM

SMILES: NC(=O)c1sc(-c2ccnc(NC(=O)C3CC3)c2)nc1OCCOCC#Cc1ccc2c(c1)C(=O)N(C1CCC(=O)NC1=O)C2=O (stereo not drawn)
- GSK3beta protein level remaining [1]: 75.3%
- IC50 [2]: 27.7 nM

- GSK3beta protein level remaining [1]: 109%
SMILES: Nc1cccc2c1C(=O)N(C1CCC(=O)NC1=O)C2=O (stereo not drawn)

SMILES: CNC(=O)c1sc(-c2ccnc(NC(=O)C3CC3)c2)nc1OCCCCCCCCOc1cccc2c1C(=O)N(C1CCC(=O)NC1=O)C2=O (stereo not drawn)
- GSK3beta protein level remaining [1]: 95.6%
- IC50 [2]: 23.8 nM

SMILES: COc1nc(-c2ccnc(NC(=O)C3CC3)c2)sc1C(=O)NCCCCCCNC(=O)COc1cccc2c1C(=O)N(C1CCC(=O)NC1=O)C2=O (stereo not drawn)
- IC50 [2]: 243 nM

SMILES: CNC(=O)c1sc(-c2ccnc(NC(=O)C3CC3)c2)nc1OCCCC#Cc1ccc2c(c1)C(=O)N(C1CCC(=O)NC1=O)C2=O (stereo not drawn)
- GSK3beta protein level remaining [1]: 99.2%
- IC50 [2]: 79.1 nM

SMILES: CNC(=O)c1sc(-c2ccnc(NC(=O)C3CC3)c2)nc1OCCOCC#Cc1ccc2c(c1)C(=O)N(C1CCC(=O)NC1=O)C2=O (stereo not drawn)
- GSK3beta protein level remaining [1]: 68.8%
- IC50 [2]: 19.7 nM

SMILES: COc1nc(-c2ccnc(NC(=O)C3CC3)c2)sc1C(=O)NCCCNC(=O)COc1cccc2c1C(=O)N(C1CCC(=O)NC1=O)C2=O (stereo not drawn)
- IC50 [2]: 874 nM

SMILES: CNC(=O)c1sc(-c2ccnc(NC(=O)C3CC3)c2)nc1OCCOCCOCCn1cc(COc2cccc3c2C(=O)N(C2CCC(=O)NC2=O)C3=O)nn1 (stereo not drawn)
- GSK3beta protein level remaining [1]: 62.7%
- IC50 [2]: 46.9 nM

SMILES: CNC(=O)c1sc(-c2ccnc(NC(=O)C3CC3)c2)nc1OCCOCCOCCOCCn1cc(COc2cccc3c2C(=O)N(C2CCC(=O)NC2=O)C3=O)nn1 (stereo not drawn)
- GSK3beta protein level remaining [1]: 54%
- IC50 [2]: 79.5 nM

SMILES: NC(=O)c1sc(-c2ccnc(NC(=O)C3CC3)c2)nc1OCCC#Cc1ccc2c(c1)C(=O)N(C1CCC(=O)NC1=O)C2=O (stereo not drawn)
- IC50 [2]: > 1000 nM

SMILES: NC(=O)c1sc(-c2ccnc(NC(=O)C3CC3)c2)nc1OCCOCC#Cc1cccc2c1CN(C1CCC(=O)NC1=O)C2=O (stereo not drawn)
- GSK3beta protein level remaining [1]: 86.9%
- IC50 [2]: 63.8 nM

SMILES: CNC(=O)c1sc(-c2ccnc(NC(=O)C3CC3)c2)nc1OCCOCCOCCOCCOc1cccc2c1C(=O)N(C1CCC(=O)NC1=O)C2=O (stereo not drawn)
- GSK3beta protein level remaining [1]: 71.2%
- IC50 [2]: 73.2 nM

SMILES: CNC(=O)c1sc(-c2ccnc(NC(=O)C3CC3)c2)nc1OCCOCCOCCOc1cccc2c1C(=O)N(C1CCC(=O)NC1=O)C2=O (stereo not drawn)
- GSK3beta protein level remaining [1]: 92.8%
- IC50 [2]: 105 nM
